Laboratory results taken from patent US10376520B2, “Methods for the treatment of cardiovascular disorders” (Galapagos NV, priority 2015, dated 2019).

Tested on: RA patients
Assay: Plasma Serum Amyloid A (SAA) concentration (ELISA), Study 4
Format: in vivo, human
Conditions: for SAA level, 4 weeks CFB: 4 weeks change from baseline
Protocol: Randomized double-blind, placebo-controlled add on study in subjects with active RA who have an inadequate response to MTX monotherapy, in combination with methotrexate, administered for 4 weeks in the treatment of subjects with active rheumatoid arthritis who have an inadequate response to methotrexate alone.
Compound 1 (dosed as a [Compound 1:HCl:3H2O]) capsules administered orally in 30 mg, 75 mg, 150 mg, or 300 mg doses per day for 4 weeks.
Plasma SAA concentration was determined using a commercial available Novex ELISA kit from Life technologies (Bleiswijk, The Netherlands) according to manufacturer's instruction. Catalogue number KHA0011, lot number used: 1433688A.

## O=C(Nc1nc2cccc(-c3ccc(CN4CCS(=O)(=O)CC4)cc3)n2n1)C1CC1 [Compound 1, cyclopropanecarboxylic acid {5-[4-(1,1-dioxo-thiomorpholin-4-ylmethyl)-phenyl]-[1,2,4]triazolo[1,5-a]pyridin-2yl}-amide]
30 mg q.d.
  SAA level, 4 weeks CFB: −15.4%
  SAA level, Baseline: 935.4 ng/mL
  SAA level, week 4: 436.2 ng/mL
75 mg q.d.
  SAA level, 4 weeks CFB: −13.5%
  SAA level, Baseline: 883.7 ng/mL
  SAA level, week 4: 201.3 ng/mL
150 mg q.d.
  SAA level, 4 weeks CFB: −56.7%
  SAA level, Baseline: 621.3 ng/mL
  SAA level, week 4: 388.5 ng/mL
300 mg q.d.
  SAA level, 4 weeks CFB: −62.0%
  SAA level, Baseline: 555.6 ng/mL
  SAA level, week 4: 43.2 ng/mL
